Data on 19 compounds can be found in patent US20090156646A1, “PYRIDYLPHENOL COMPOUND AND USE THEREOF” (TAKEDA PHARMACEUTICAL COMPANY LIMITED, priority 2005, published 2009).

The structures appear in SMILES notation. Where a name gives a salt, the structure may show the parent alone.

Data set [1] has as its target T1, human metastin receptor hOT7T175 (Homo sapiens, UniProt Q969F8, L364H).
T1 construct: encoding the entire length of human metastin receptor hOT7T175; expressed in transfected cells; host or cells: CHO/dhFr- cells (ATCC #CRL-9096) stably transfected with pAKKO-hOT7T175; clone h175-16 was used as whole cells for FLIPR
The experiment in a line: binding inhibiting activity: 125I-metastin (40-54) binding to cell membrane fraction of h175 KB34 cells. As to conditions: room temperature 60 minutes, read-out: binding inhibiting activity, represented by the IC50 value. Here is the method: cDNA fragments (SEQ ID NO: 2) encoding the entire length of human metastin receptor hOT7T175 were incorporated into expression vector pAKKO1.11H to produce animal cell expression plasmids pAKKO-hOT7T175. CHO/dhFr-cells (ATCC, #CRL-9096) were seeded onto 6 cm culture dishes (Becton Dickinson) at a density of 0.3×10^6 cells/dish, and cultured in the conditions of 48 hours, 37° C. and 5% CO2. 5 μg pAKKO-hOT7T175 plasmid DNA was transfected to the resultant cells by a known method (described in Example 3 of WO 00/24890) using the Cellphect Transfection Kit (Amersham, #27-9268-01). The DNA-transfected cells were cultured in the Dulbecco's modified Eagle medium (DMEM) (Sigma, #D6046) containing 10% dialyzed FBS (Biowest, #S180D), 1× Non-Essential Amino Acid (Invitrogen, #11140-050) and 50 μg/ml Gentamycin (Invitrogen, #15750-060; and cell strains stably expressing the plasmid genes were selected. The obtained 41 clones were treated with the FLIPR assay (in accordance with the method described in Example 3 of WO 00/24890), and the reactivity to the human metastin […] (Nos. 40 to 54 of the human metastin sequence; Peptide Institute, Inc., #4389-v) was evaluated. In the end, h175 KB34 cell strains were selected. By substantially the same method, h175-16 cell strains were also produced.
The h175 KB34 cells were cultured to be on the stage of 40-50% confluency using a cell factory (Nunc, #164327), and then cells were recovered in the following method.
First, the medium was disposed, and the cells were washed twice with 200 ml EDTA/PBS(−). Another 200 ml of EDTA/PBS(−) was added, and the cells were kept still for 20 minutes at room temperature until being peeled off. The cells were recovered into four 50 ml tubes (Becton Dickinson, #352070), and centrifuged (2,000 rpm, 10 min., 4° C.) by a reduced performance centrifuge (TOMY, RL-101). The supernatant was disposed, and the pellets in the four tubes were each suspended with 10 ml EDTA/PBS(−) and collected into one tube (Becton Dickinson, #352070). The pellet was further centrifuged (2,000 rpm, 10 min., 4° C.). The resultant pellet was suspended with 20 ml ice-cooled homogenizer buffer [10 mM NaHCO3, 2 mM EGTA, 0.2 mM magnesium acetate, 10 μg/ml Leupeptin (Peptide Institute, Inc., #4041), 10 μg/ml E-64 (Peptide Institute, Inc., # 4096), 100 μg/ml o-phenanthroline (Dojindo Laboratories), 90 μg/ml PMSF (Wako Pure Chemical Industries, Ltd.), 10 μg/ml Pepstatin A (Peptide Institute, Inc., #4397), pH7.3]. The cell suspension was homogenized 3 times, each for 30 seconds, using a Polytron homogenizer. The resultant homogenate was centrifuged (2,500 rpm, 10 min, 4° C.) using a high performance refrigerated centrifuge (Hitachi, Ltd., CR26H). The supernatant was recovered into a super-centrifuge tube, and super-centrifuged (30,000 rpm, 60 min, 4° C.) using a super-centrifuge (Hitachi, Ltd., SCP70H). 3 ml homogenizer buffer was added to the resultant pellet, and the pellet was suspended by pipetting. 3 ml glycerol (Wako Pure Chemical Industries, Ltd.) was added to the resultant suspension and diluted 2-folds. The resultant substance was used as a cell membrane fraction of the h175 KB34 cells. Each […] of the membrane fraction was put into a 1.5 ml tube (Eppendorf, #0030120.086), stored in a freezer (−30 C) so as not to be frozen, and used for a binding assay.
An assay buffer was prepared on the day of the test by adding, to each 100 ml of an assay basic buffer [20 mM Tris, 2.5 mM Magnesium Acetate, 2 mM EGTA, pH 7.4], 1 mg Leupeptin (Peptide Institute, Inc., 4041), 1 mg E-64 (Peptide Institute, Inc., 4096), 10 mg o-phenanthroline (Dojindo Laboratories), 9 mg PMSF (Wako Pure Chemical Industries, Ltd.) and 1 mg Pepstatin A (Peptide Institute, Inc., 4397). The prepared assay buffer was stored at 4° C. until being used. When the measurement was to be performed with no BSA, the above-described assay buffer was used. […]

T1 sequence (Q969F8 whole entry L364H): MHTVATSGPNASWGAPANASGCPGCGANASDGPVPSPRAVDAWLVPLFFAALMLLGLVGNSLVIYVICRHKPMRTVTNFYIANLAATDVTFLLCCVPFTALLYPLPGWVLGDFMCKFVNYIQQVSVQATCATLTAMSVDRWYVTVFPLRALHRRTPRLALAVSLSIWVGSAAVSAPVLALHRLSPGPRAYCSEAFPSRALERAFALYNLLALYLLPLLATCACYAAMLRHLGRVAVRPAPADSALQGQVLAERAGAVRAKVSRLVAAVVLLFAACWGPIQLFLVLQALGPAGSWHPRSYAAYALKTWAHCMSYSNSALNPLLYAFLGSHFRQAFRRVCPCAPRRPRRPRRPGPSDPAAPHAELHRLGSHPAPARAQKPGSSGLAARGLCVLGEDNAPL

As usually defined, the IC50 is the concentration at which inhibition is half-maximal. For orientation: melting point means the temperature of the solid-liquid transition. `Cl.N#Cc1c(-c2cccc(NC(=O)[C@H]3CCC[C@H]3N)c2)cc(-c2ccc(F)cc2O)nc1NC(=O)c1ccco1` (racemic) [Example 278, N-{4-[3-({[(1SR,2RS)-2-aminocyclopentyl]carbonyl}amino)phenyl]-3-cyano-6-(4-fluoro-2-hydroxyphenyl)pyridin-2-yl}-2-furamide hydrochloride] yielded a melting point of 224 to 226 °C. Further, the IC50 in data set [1] was no more than 10 µM.

Take `Cl.N#Cc1c(-c2ccc(F)c(C(=O)NCCN)c2)cc(-c2ccc(F)cc2O)nc1NC(=O)c1ccco1` [Example 281, N-[4-(3-{[(2-aminoethyl)amino]carbonyl}-4-fluorophenyl)-3-cyano-6-(4-fluoro-2-hydroxyphenyl)pyridin-2-yl]-2-furamide hydrochloride]: the melting point lay within 255 to 264 °C. In data set [1], the IC50 was no more than 10 µM. For `CCN(CC)CC(=O)Nc1cccc(-c2cc(-c3ccc(F)cc3O)nc(NC(=O)c3ccco3)c2C#N)c1.Cl` [Example 315, N-[3-cyano-4-{3-[(N,N-diethylglycyl)amino]phenyl}-6-(4-fluoro-2-hydroxyphenyl)pyridin-2-yl]-2-furamide hydrochloride] the same measures were 262 to 263 °C and no more than 10 µM. For `C[C@H](N)C(=O)Nc1cccc(-c2cc(-c3ccc(Cl)cc3O)nc(NC(=O)c3ccco3)c2C#N)c1.Cl` [Example 240, N-[4-[3-(L-alanylamino)phenyl]-6-(4-chloro-2-hydroxyphenyl)-3-cyanopyridin-2-yl]-2-furamide hydrochloride] the same measures were 207 to 210 °C and no more than 10 µM. Take `N#Cc1c(-c2ccnc(C(=O)NCCN)c2)cc(-c2ccccc2O)nc1NC(=O)c1ccco1` [Example 272, N-(2-aminoethyl)-3′-cyano-2′-(2-furoylamino)-6′-(2-hydroxyphenyl)-4,4′-bipyridine-2-carboxamide dihydrochloride]: the IC50 in data set [1] was no more than 10 µM. Same read-out and setting: in the case of `CN(C)CCN(C)c1cccc(-c2cc(-c3ccc(F)cc3O)nc(NC(=O)c3ccco3)c2C#N)c1` [Example 324, N-[3-cyano-4-{3-[[2-(dimethylamino)ethyl] (methyl)amino]phenyl}-6-(4-fluoro-2-hydroxyphenyl)pyridin-2-yl]-2-furamide] it was no more than 10 µM; in that of `N#Cc1c(-c2cccc(NC(=O)CCN)c2)cc(-c2ccc(F)cc2O)nc1NC(=O)c1cccs1` [Example 58, N-{4-[3-(β-alanylamino)phenyl]-3-cyano-6-(4-fluoro-2-hydroxyphenyl)pyridin-2-yl}thiophene-2-carboxamide hydrochloride], no more than 10 µM. `CN(C)CC(=O)Nc1cccc(-c2cc(-c3ccc(F)cc3O)nc(NC(=O)c3ccco3)c2CN(C)C)c1` [Example 300, N-[3-[(dimethylamino)methyl]-4-{3-[(N,N-dimethylglycyl)amino]phenyl}-6-(4-fluoro-2-hydroxyphenyl)pyridin-2-yl]-2-furamide dihydrochloride]: the 50% inhibitory concentration (IC50) in data set [1] was no more than 10 µM. Still for that read-out and setting: the figure for `CNCC(=O)Nc1cccc(-c2cc(-c3ccc(F)cc3O)nc(NC(=O)c3ccco3)c2C#N)c1` [Example 312, N-(3-cyano-6-(4-fluoro-2-hydroxyphenyl)-4-{3-[(N-methylglycyl)amino]phenyl}pyridin-2-yl)-2-furamide hydrochloride] is no more than 10 µM. The same measure, in the same setting: the figure for `CC(N)CC(=O)Nc1cccc(-c2cc(-c3ccc(Cl)cc3O)nc(NC(=O)c3cccn3C)c2C#N)c1` (centres unmarked) [Example 274, N-[4-{3-[(3-aminobutanoyl)amino]phenyl}-6-(4-chloro-2-hydroxyphenyl)-3-cyanopyridin-2-yl]-1-methyl-1H-pyrrole-2-carboxamide hydrochloride] is no more than 10 µM; for `N#Cc1c(-c2cccc(NC(=O)[C@@H]3CCCC[C@H]3N)c2)cc(-c2ccc(F)cc2O)nc1NC(=O)c1ccco1` (racemic) [Example 277, N-{4-[3-({[(1SR,2SR)-2-aminocyclohexyl]carbonyl}amino)phenyl]-3-cyano-6-(4-fluoro-2-hydroxyphenyl)pyridin-2-yl}-2-furamide hydrochloride] it is no more than 10 µM; for `COc1c(NC(=O)OC(C)(C)C)cccc1-c1cc(-c2ccccc2O)nc(NC(=O)c2ccco2)c1C#N` [Example 275, tert-butyl{3-[3-cyano-2-(2-furoylamino)-6-(2-hydroxyphenyl)pyridin-4-yl]-2-methoxyphenyl}carbamate] it is no more than 10 µM. The same measure, in the same setting: the figure for `N#Cc1c(-c2cccc(NC(=O)CCN)c2)cc(-c2ccc(Cl)cc2O)nc1NC(=O)c1ccno1` [Example 251, N-[4-[3-(β-alanylamino)phenyl]-6-(4-chloro-2-hydroxyphenyl)-3-cyanopyridin-2-yl]isoxazole-5-carboxamide hydrochloride] is no more than 10 µM. As to `N#Cc1c(-c2cccc(NC(=O)[C@H](N)Cc3c[nH]cn3)c2)cc(-c2ccc(F)cc2O)nc1NC(=O)c1ccco1` [Example 261, N-{3-[3-cyano-6-(4-fluoro-2-hydroxyphenyl)-2-(2-furoylamino)pyridin-4-yl]phenyl}-D-histidinamide hydrochloride], in data set [1], the half-maximal inhibitory concentration (IC50) was no more than 10 µM. Turning to `CCCC(CC(=O)Nc1cccc(-c2cc(-c3ccc(F)cc3O)nc(NC(=O)c3ccco3)c2C#N)c1)N(CC)CC` (centres unmarked) [Example 317, N-[3-cyano-4-(3-{[3-(diethylamino)hexanoyl]amino}phenyl)-6-(4-fluoro-2-hydroxyphenyl)pyridin-2-yl]-2-furamide hydrochloride], the IC50 in data set [1] was no more than 10 µM. Turning to `N#Cc1c(-c2cc(NC(=O)CCN)ccc2Cl)cc(-c2ccccc2O)nc1NC(=O)c1cccs1` [Example 42, N-{4-[5-(β-alanylamino)-2-chlorophenyl]-3-cyano-6-(2-hydroxyphenyl)pyridin-2-yl}thiophene-2-carboxamide dihydrochloride], the IC50 in data set [1] was no more than 10 µM. With `N#Cc1c(-c2cccc(NC(=O)[C@@H](N)CN)c2)cc(-c2ccc(F)cc2O)nc1NC(=O)c1ccco1` [Example 302, N-[4-{3-[(3-amino-L-alanyl)amino]phenyl}-3-cyano-6-(4-fluoro-2-hydroxyphenyl)pyridin-2-yl]-2-furamide dihydrochloride], the 50% inhibitory concentration (IC50) in data set [1] was no more than 10 µM. Same read-out and setting: in the case of `C[C@H](N)CNC(=O)c1cccc(-c2cc(-c3ccc(Cl)cc3O)nc(NC(=O)c3ccno3)c2C#N)c1` [Example 268, N-[4-[3-({[(2S)-2-aminopropyl]amino}carbonyl)phenyl]-6-(4-chloro-2-hydroxyphenyl)-3-cyanopyridin-2-yl]isoxazole-5-carboxamide hydrochloride] it was no more than 10 µM; in that of `N#Cc1c(-c2cccc(C(=O)NCCN)c2)cc(-c2ccc(F)cc2O)nc1NC(=O)c1ccco1` [Example 66, N-[4-(3-{[(2-aminoethyl)amino]carbonyl}phenyl)-3-cyano-6-(4-fluoro-2-hydroxyphenyl)pyridin-2-yl]-2-furamide hydrochloride], no more than 10 µM.
